Test results published in patent US20140051679A1, “KINASE INHIBITORS AND METHOD OF TREATING CANCER WITH SAME” (UNIVERISTY HEALTH NETWORKS, priority 2011, published 2014).
pIC50: −log10 of the molar value. Read-outs that look alike come from different tables or passages of the source.

Legend:
[1] = tested on: HCT116 colon cancer cells; assay: Cell growth inhibition, Sulforhodamine B assay, HCT116; assay type: cell-based; conditions: 5 days culture, SRB assay, read-out: Cell Line GI50 Range HCT116
human TTK = biological target: T1, human TTK (Homo sapiens, UniProt P33981); assay: TTK inhibition assay (indirect ELISA); assay type: biochemical; conditions: GST-TTK 0.68 nM, 16 μM ATP; read-out: IC50 Ranges TTK
T1 construct: amino terminal GST fusion of full length human TTK; purchased Invitrogen
T1 sequence (P33981 1-857): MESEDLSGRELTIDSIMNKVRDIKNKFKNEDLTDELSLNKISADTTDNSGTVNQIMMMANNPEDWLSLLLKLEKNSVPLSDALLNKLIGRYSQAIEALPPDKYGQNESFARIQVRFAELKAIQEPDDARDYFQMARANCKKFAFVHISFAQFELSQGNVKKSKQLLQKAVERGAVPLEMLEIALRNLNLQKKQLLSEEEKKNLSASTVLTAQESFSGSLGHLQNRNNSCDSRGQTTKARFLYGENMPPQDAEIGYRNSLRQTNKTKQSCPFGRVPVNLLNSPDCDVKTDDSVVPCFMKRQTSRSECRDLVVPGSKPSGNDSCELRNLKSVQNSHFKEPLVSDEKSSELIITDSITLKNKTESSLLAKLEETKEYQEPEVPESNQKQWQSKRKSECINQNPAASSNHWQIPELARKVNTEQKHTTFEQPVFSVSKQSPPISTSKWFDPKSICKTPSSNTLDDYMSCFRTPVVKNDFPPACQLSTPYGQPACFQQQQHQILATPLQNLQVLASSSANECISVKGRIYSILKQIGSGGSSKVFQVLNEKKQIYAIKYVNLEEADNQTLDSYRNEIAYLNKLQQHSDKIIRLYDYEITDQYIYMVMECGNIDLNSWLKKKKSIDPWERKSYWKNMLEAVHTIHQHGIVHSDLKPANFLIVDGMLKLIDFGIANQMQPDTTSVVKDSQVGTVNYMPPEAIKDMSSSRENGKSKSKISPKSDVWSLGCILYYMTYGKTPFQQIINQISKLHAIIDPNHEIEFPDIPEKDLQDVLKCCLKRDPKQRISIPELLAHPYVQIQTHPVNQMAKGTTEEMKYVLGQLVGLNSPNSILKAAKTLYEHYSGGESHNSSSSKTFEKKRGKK

human PLK4 = biological target: T2, human PLK4 (Homo sapiens, UniProt O00444); assay: PLK4 inhibition assay (indirect ELISA); assay type: biochemical; conditions: GST-PLK4 4 nM, 15 μM ATP; read-out: IC50 Ranges PLK4
T2 construct: amino terminal GST fusion of residues 1-391 of human PLK4; made in house; host or cells: E. coli
T2 sequence (O00444 1-391): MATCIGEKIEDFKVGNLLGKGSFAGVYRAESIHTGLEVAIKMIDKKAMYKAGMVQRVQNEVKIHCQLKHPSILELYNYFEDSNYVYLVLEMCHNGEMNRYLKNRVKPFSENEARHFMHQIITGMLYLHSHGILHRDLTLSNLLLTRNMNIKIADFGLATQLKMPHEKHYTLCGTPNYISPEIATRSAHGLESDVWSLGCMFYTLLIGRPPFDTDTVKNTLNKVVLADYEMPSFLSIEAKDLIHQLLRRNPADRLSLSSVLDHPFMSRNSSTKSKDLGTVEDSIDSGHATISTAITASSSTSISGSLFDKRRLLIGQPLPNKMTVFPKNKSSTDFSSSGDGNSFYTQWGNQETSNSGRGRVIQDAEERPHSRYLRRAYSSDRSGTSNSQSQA
Outline: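 Compounds were tested either at a single 10 μM dose or across 10-point titrations (typically 0.5 to 0.001 μM), preincubated 15 min with 4 nM GST-PLK4 (human 1-391, dephosphorylated) before 15 μM ATP was added. MBP substrate phosphorylation over 30 min, pH 7.5 HEPES/MgCl2 buffer, read by HRP/TMB ELISA (450 nm). % inhibition vs. high-activity control; IC50 by logistic fit.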

HT29 colon cancer cells = assay: Cell growth inhibition, Sulforhodamine B assay, HT29; assay type: cell-based; conditions: 5 days culture, SRB assay, read-out: Cell Line GI50 Range HT29
[2] = tested on: MDA-MB-468 breast cancer cells; assay: Cell growth inhibition, Sulforhodamine B assay, MDA-MB-468; assay type: cell-based; conditions: 5 days culture, SRB assay, read-out: Cell Line GI50 Range MDA-MB-468
[3] = tested on: PA-1 ovarian cancer cells; assay: Cell growth inhibition, Sulforhodamine B assay, PA-1; assay type: cell-based; conditions: 5 days culture, SRB assay, read-out: Cell Line GI50 Range PA-1
Aurora B = biological target: T3, Aurora B (Homo sapiens, UniProt Q96GD4); assay: Aurora B inhibition assay (Z-Lyte); assay type: biochemical; conditions: 28 nM Aurora B, 128 μM ATP; read-out: IC50 Ranges Aurora B
T3 construct: purchased Invitrogen PV3970
Method: Aurora B inhibition was determined using the Z-Lyte assay kit from Invitrogen. The assay was performed using the recommended manufacturer's instructions with 128 μM ATP and 28 nM Aurora B (Invitrogen cat #PV3970). The % inhibition values were determined according to the manufacturer's directions and IC50 values were obtained using a non-linear 4 point logistic curve fit (XLfit4, IDBS)

T3 sequence (Q96GD4 whole entry): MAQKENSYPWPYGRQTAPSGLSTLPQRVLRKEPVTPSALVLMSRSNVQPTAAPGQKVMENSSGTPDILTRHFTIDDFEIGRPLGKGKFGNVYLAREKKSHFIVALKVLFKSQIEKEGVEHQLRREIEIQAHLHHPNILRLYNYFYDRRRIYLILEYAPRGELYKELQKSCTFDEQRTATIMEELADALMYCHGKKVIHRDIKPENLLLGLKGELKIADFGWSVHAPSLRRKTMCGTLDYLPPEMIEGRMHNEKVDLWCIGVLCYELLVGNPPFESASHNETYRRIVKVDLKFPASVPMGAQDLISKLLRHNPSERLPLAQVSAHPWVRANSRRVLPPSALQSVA

SMILES	GI50 ([1]; Homo sapiens, HCT-116, 120 h) [µM]	pIC50 (human TTK)	pIC50 (human PLK4)	GI50 (HT29 colon cancer cells; Homo sapiens, HT-29, 120 h) [µM]	GI50 ([2]; Homo sapiens, 120 h) [µM]	GI50 ([3]; 120 h) [µM]	pIC50 (Aurora B)	GI50 [1] [µM]	GI50 (HT29 colon cancer cells) [µM]	GI50 [2] [µM]	GI50 [3] [µM]
COC(C(=O)Nc1ccc2[nH]nc(-c3ccc(N4CCC(O)CC4)cc3)c2c1)c1ccsc1 (centres unmarked) [Example A87, N-(3-(4-(4-hydroxypiperidin-1-yl)phenyl)-1H-indazol-5-yl)-2-methoxy-2-(thiophen-3-yl)acetamide]	≤ 5	≥ 5.30	≥ 5.30	≤ 5	≤ 5	≤ 5	–	–	–	–	–
O=C(NC(c1ccccc1)C1CC1)c1ccc2[nH]nc(-c3ccc(OC4CCN(CCF)CC4)cc3)c2c1 (centres unmarked) [Example A122, N-(cyclopropyl(phenyl)methyl)-3-(4-((1-(2-fluoroethyl)piperidin-4-yl)oxy)phenyl)-1H-indazole-5-carboxamide]	≤ 5	≥ 5.30	≥ 5.30	≤ 5	≤ 5	≤ 5	–	–	–	–	–
O=C(Nc1ccc2[nH]nc(-c3ccc(N4CC(O)C4)cc3)c2c1)C(c1ccsc1)N1CCCC1 (centres unmarked) [Example A120, N-(3-(4-(3-Hydroxyazetidin-1-yl)phenyl)-1H-indazol-5-yl)-2-(pyrrolidin-1-yl)-2-(thiophen-3-yl)acetamide]	≤ 5	≥ 5.30	≥ 5.30	≤ 5	≤ 5	≤ 5	≥ 5.30	–	–	–	–
O=C(NC(c1ccccc1)C1CC1)c1ccc2[nH]nc(-c3ccc(N4CCC(O)CC4)cc3)c2c1 (centres unmarked) [Example A84, N-(cyclopropyl(phenyl)methyl)-3-(4-(4-hydroxypiperidin-1-yl)phenyl)-1H-indazole-5-carboxamide]	≤ 5	≥ 5.30	≥ 5.30	≤ 5	≤ 5	≤ 5	≥ 5.30	–	–	–	–
O=C(Nc1ccc2[nH]nc(-c3ccc(N4CCOCC4)cc3)c2c1)C(c1cccs1)N1CCCC1 (centres unmarked) [Example A82, N-(3-(4-morpholinophenyl)-1H-indazol-5-yl)-2-(pyrrolidin-1-yl)-2-(thiophen-2-yl)acetamide]	≤ 5	≥ 5.30	≥ 5.30	≤ 5	≤ 5	≤ 5	≥ 5.30	–	–	–	–
O=C(Nc1ccc2[nH]nc(-c3ccc(N4CCC(O)CC4)cc3)c2c1)C(c1ccsc1)N1CCCCC1 (centres unmarked) [Example A83, N-(3-(4-(4-hydroxypiperidin-1-yl)phenyl)-1H-indazol-5-yl)-2-(piperidin-1-yl)-2-(thiophen-3-yl)acetamide]	≤ 5	≥ 5.30	≥ 5.30	≤ 5	≤ 5	≤ 5	≥ 5.30	–	–	–	–
O=C(Nc1ccc2[nH]nc(-c3ccc(N4CCC(O)CC4)cc3)c2c1)C(c1cccs1)N1CCCC1 (centres unmarked) [Example A88, N-(3-(4-(4-hydroxypiperidin-1-yl)phenyl)-1H-indazol-5-yl)-2-(pyrrolidin-1-yl)-2-(thiophen-2-yl)acetamide]	≤ 5	≥ 5.30	≥ 5.30	≤ 5	≤ 5	≤ 5	≥ 5.30	–	–	–	–
CC(C)(O)C1CCN(c2ccc(-c3n[nH]c4ccc(NC(=O)C(c5ccsc5)N5CCC5)cc34)cc2)CC1 (centres unmarked) [Example A201, 2-(azetidin-1-yl)-N-(3-(4-(4-(2-hydroxypropan-2-yl)piperidin-1-yl)phenyl)-1H-indazol-5-yl)-2-(thiophen-3-yl)acetamide]	≤ 5	≥ 5.30	≥ 5.30	–	≤ 5	≤ 5	≥ 5.30	–	–	–	–
O=C(Nc1ccc2[nH]nc(-c3ccc(NC4CCC(O)CC4)cc3)c2c1)C(c1ccsc1)N1CCCC1 (stereo not drawn) [Example A105, rel-N-(3-(4-(((1r,4r)-4-hydroxycyclohexyl)amino)phenyl)-1H-indazol-5-yl)-2-(pyrrolidin-1-yl)-2-(thiophen-3-yl)acetamide]	–	≥ 5.30	≥ 5.30	–	–	–	≥ 5.30	≤ 5	≤ 5	≤ 5	≤ 5
O=C(N[C@H](c1ccccn1)C1CC1)c1ccc2[nH]nc(-c3ccc(OC4CCN(C5COC5)CC4)cc3)c2c1 [Example A197, (S)—N-(cyclopropyl(pyridin-2-yl)methyl)-3-(4-((1-(oxetan-3-yl)piperidin-4-yl)oxy)phenyl)-1H-indazole-5-carboxamide]	≤ 5	≥ 5.30	≥ 5.30	–	≤ 5	≤ 5	≥ 5.30	–	–	–	–
Cc1ccccc1C(NC(=O)c1ccc2[nH]nc(-c3ccc(N4CCOCC4)cc3)c2c1)C1CC1 (centres unmarked) [Example A119, N-(cyclopropyl(o-tolyl)methyl)-3-(4-morpholinophenyl)-1H-indazole-5-carboxamide]	≤ 5	≥ 5.30	≥ 5.30	≤ 5	≤ 5	≤ 5	≥ 5.30	–	–	–	–
O=C(Nc1ccc2[nH]nc(-c3ccc(N4CCC(CO)CC4)cc3)c2c1)C(c1ccsc1)N1CCCC1 (centres unmarked) [Example A95, N-(3-(4-(4-(hydroxymethyl)piperidin-1-yl)phenyl)-1H-indazol-5-yl)-2-(pyrrolidin-1-yl)-2-(thiophen-3-yl)acetamide]	≤ 5	≥ 5.30	≥ 5.30	≤ 5	≤ 5	≤ 5	≥ 5.30	–	–	–	–
COc1cc(-c2n[nH]c3ccc(C(=O)NC(c4ccccn4)C4CC4)cc23)ccc1OC1CCN(C2COC2)CC1 (centres unmarked) [Example A195]	≤ 5	≥ 5.30	≥ 5.30	–	≤ 5	≤ 5	≥ 5.30	–	–	–	–
O=CN1CCC(Oc2ccc(-c3n[nH]c4ccc(C(=O)N[C@@H](c5ccccn5)C5CC5)cc34)cc2)CC1 [Example A203, (R)—N-(cyclopropyl(pyridin-2-yl)methyl)-3-(4-((1-formylpiperidin-4-yl)oxy)phenyl)-1H-indazole-5-carboxamide]	≤ 5	≥ 5.30	≥ 5.30	–	≤ 5	≤ 5	≥ 5.30	–	–	–	–
O=CN1CCC(Oc2ccc(-c3n[nH]c4ccc(C(=O)N[C@H](c5ccccn5)C5CC5)cc34)cc2)CC1 [Example A204, (S)—N-(cyclopropyl(pyridin-2-yl)methyl)-3-(4-((1-formylpiperidin-4-yl)oxy)phenyl)-1H-indazole-5-carboxamide]	≤ 5	≥ 5.30	≥ 5.30	–	≤ 5	≤ 5	≥ 5.30	–	–	–	–
